Test results: publication PMC11284787, “Ligand-Directed Labeling of the Adenosine A1 Receptor in Living Cells” (Journal of Medicinal Chemistry, 2024)

Target: T1, NL-hA2AAR (Homo sapiens, UniProt P29274)
T1 construct: expressed in transfected cells; host or cells: HEK293T, transient transfection (FuGENE)
Experiment: NanoBRET saturation ligand-binding assay, NL-hA2AAR
Conditions: HEK293T cells transiently expressing NL-hA2AAR, mean ± SEM; read-out: affinity values pKD, NL-hA2AAR (converted)
Procedure: Probes 11 and 12 were further evaluated for their ability to bind the other three adenosine receptor subtypes (NL-A2AAR, NL-A2BAR, and NL-A3AR), and their ligand-binding properties were quantified in the NanoBRET saturation and inhibition binding assays, respectively (Table 1 and Figure 4). […]
plates (Nunc Lab-Tek, Thermo Fischer Scientific), pre-coated with Poly-D-Lysine, at 20,000 cells per well in DMEM/10% FCS. 24 h post seeding, cells were transiently transfected with human SNAP-A1. Transient transfections were carried out following manufacturer’s protocol: used FuGENE (Promega) HD at 3:1 ratio of reagent to cDNA with a total of 300 ng cDNA per well. Transfection solutions were made up in Gibco Opti-MEM (Thermo Fischer Scientific), incubated at RT for 5 min and added as 11 µL per well. Cells were incubated for additional 24 h at 37 OC, 5% CO2. Transient Transfection of NanoLuc-tagged human A 2AAR in HEK293T cell line was carried out as follows: 72 h prior to the experiment cells were removed from a confluent T75 flask and centrifuged. The pellet of cells was resuspended in 10 mL of fresh complete DMEM. […]
37 °C for kinetic binding experiments. Emissions were read at 420 nm (80 nm bandpass; […]

T1 sequence (P29274 whole entry): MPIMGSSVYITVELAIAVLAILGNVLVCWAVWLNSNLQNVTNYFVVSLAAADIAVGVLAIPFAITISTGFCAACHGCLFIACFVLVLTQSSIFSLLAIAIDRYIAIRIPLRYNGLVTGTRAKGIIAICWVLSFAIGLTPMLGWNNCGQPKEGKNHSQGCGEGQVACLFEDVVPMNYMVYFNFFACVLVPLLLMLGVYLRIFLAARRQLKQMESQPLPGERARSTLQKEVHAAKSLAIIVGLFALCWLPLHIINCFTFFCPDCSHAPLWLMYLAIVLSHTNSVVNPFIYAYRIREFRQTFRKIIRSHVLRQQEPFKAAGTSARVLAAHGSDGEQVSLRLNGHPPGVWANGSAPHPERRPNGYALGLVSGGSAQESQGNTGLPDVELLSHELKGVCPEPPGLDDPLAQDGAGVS

Question: With `CCCCn1c(=O)c2[nH]c(C34CCC(C(=O)NCCNC(=O)CCNC(=O)c5ccc(OC(=O)CCCCC[N+]6=C(/C=C/C=C/C=C7/N(C)c8ccc(S(=O)(=O)O)cc8C7(C)C)C(C)(C)c7cc(S(=O)(=O)[O-])ccc76)c(F)c5)(CC3)CC4)nc2n(CCCC)c1=O` [Compound 11, 1-(6-(4-((3-((2-(4-(1,3-Dibutyl-2,6-dioxo-2,3,6,7-tetrahydro-1H-purin-8-yl)bicyclo[2.2.2]octane-1-carboxamido)ethyl)amino)-3-oxopropyl)carbamoyl)-2-fluorophenoxy)-6-oxohexyl)-3,3-dimethyl-2-((1E,3E)-5-((E)-1,3,3-trimethyl-5-sulfoindolin-2-ylidene)penta-1,3-dien-1-yl)-3H-indol-1-ium-5-sulfonate] as the compound, how does the Kd read?
Answer: 245 nM
